Source: PubChem BioAssay (NCI)
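How tested: cells in 96-well plates exposed to compound for 48 hours at five concentrations. GI50: concentration for 50% inhibition of growth. TGI is the concentration that stops growth completely.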

Key:
Test in all cases: DTP human tumour cell line panel, 48 h
[1] = system: 786-0 renal
[2] = system: A549 NSCLC
[3] = system: ACHN renal
[4] = system: BT-549 breast
[5] = system: CAKI-1 renal
[6] = system: CCRF-CEM leukemia
[7] = system: COLO 205 colon
[8] = system: DU-145 prostate
[9] = system: HCC-2998 colon
[10] = system: HCT-116 colon
[11] = system: HCT-15 colon
[12] = system: HL-60(TB) leukemia
[13] = system: HOP-62 NSCLC
[14] = system: HOP-92 NSCLC
[15] = system: HT29 colon
[16] = system: IGROV1 ovarian
[17] = system: KM12 colon
[18] = system: LOX IMVI melanoma
[19] = system: M14 melanoma
[20] = system: MALME-3M melanoma
[21] = system: MCF7 breast
[22] = system: MDA-MB-231 breast
[23] = system: MDA-MB-435
[24] = system: MOLT-4 leukemia
[25] = system: NCI-H226 lung
[26] = system: NCI-H23 lung
[27] = system: NCI-H460 lung
[28] = system: NCI/ADR-RES ovarian
[29] = system: OVCAR-3 ovarian
[30] = system: OVCAR-4 ovarian
[31] = system: OVCAR-5 ovarian
[32] = system: OVCAR-8 ovarian
[33] = system: PC-3 prostate
[34] = system: RPMI-8226 leukemia
[35] = system: RXF 393 renal
[36] = system: SF-268 CNS
[37] = system: SF-295 CNS
[38] = system: SF-539 CNS
[39] = system: SK-MEL-28 melanoma
[40] = system: SK-MEL-5 melanoma
[41] = system: SK-OV-3 ovarian
[42] = system: SN12C renal
[43] = system: SNB-19 CNS
[44] = system: SNB-75 CNS
[45] = system: SR leukemia
[46] = system: SW-620 colon
[47] = system: T-47D breast
[48] = system: TK-10 renal
[49] = system: U251 CNS
[50] = system: UACC-257 melanoma
[51] = system: UACC-62 melanoma
[52] = system: UO-31 renal

For `Cc1ccc(C2CC(c3ccc(Nc4ccnc5cc(Cl)ccc45)cc3)=NN2C=O)cc1` (centres undefined), the GI50 [1] was 50.9 µM, the TGI [1] was > 100 µM and the GI50 [2] was 9.86 µM. For the same compound, the TGI [2] was > 100 µM, the GI50 [3] was 3.27 µM and the TGI [3] was > 100 µM. The GI50 [4] was 5.64 µM, the TGI [4] was > 100 µM and the GI50 [5] was > 100 µM. The TGI [5] was > 100 µM, the GI50 [6] was 2.25 µM and the TGI [6] was > 100 µM. The GI50 [7] was 4.59 µM, the TGI [7] was > 100 µM and the GI50 [8] was > 100 µM. The TGI [8] was > 100 µM, the GI50 [9] was 7.44 µM and the TGI [9] was > 100 µM. For the same compound, the GI50 [10] was 25.2 µM, the TGI [10] was > 100 µM and the GI50 [11] was 2.78 µM. For the same compound, the TGI [11] was > 100 µM, the GI50 [12] was 2.27 µM and the TGI [12] was 6.21 µM. The GI50 [13] was > 100 µM, the TGI [13] was > 100 µM and the GI50 [14] was 2.14 µM. For the same compound, the TGI [14] was > 100 µM, the GI50 [15] was 6.09 µM and the TGI [15] was > 100 µM. The GI50 [16] was 26.6 µM, the TGI [16] was > 100 µM and the GI50 [17] was 6.64 µM. For the same compound, the TGI [17] was > 100 µM, the GI50 [18] was 4.11 µM and the TGI [18] was > 100 µM. The GI50 [19] was 6.88 µM, the TGI [19] was > 100 µM and the GI50 [20] was > 100 µM. For the same compound, the TGI [20] was > 100 µM, the GI50 [21] was 8.39 µM and the TGI [21] was > 100 µM. The GI50 [22] was 6.09 µM, the TGI [22] was > 100 µM and the GI50 [23] was 1.95 µM. The TGI [23] was > 100 µM, the GI50 [24] was 5.13 µM and the TGI [24] was > 100 µM. The GI50 [25] was > 100 µM, the TGI [25] was > 100 µM and the GI50 [26] was 6.93 µM. The TGI [26] was > 100 µM, the GI50 [27] was > 100 µM and the TGI [27] was > 100 µM. For the same compound, the GI50 [28] was 5.22 µM, the TGI [28] was > 100 µM and the GI50 [29] was 6.82 µM. The TGI [29] was > 100 µM, the GI50 [30] was 5.15 µM and the TGI [30] was > 100 µM. For the same compound, the GI50 [31] was > 100 µM, the TGI [31] was > 100 µM and the GI50 [32] was > 100 µM. The TGI [32] was > 100 µM, the GI50 [33] was 4.61 µM and the TGI [33] was > 100 µM. The GI50 [34] was 2.18 µM, the TGI [34] was > 100 µM and the GI50 [35] was 4.89 µM. The TGI [35] was > 100 µM, the GI50 [36] was 8.61 µM and the TGI [36] was > 100 µM. The GI50 [37] was 4 µM, the TGI [37] was > 100 µM and the GI50 [38] was > 100 µM. The TGI [38] was > 100 µM, the GI50 [39] was > 100 µM and the TGI [39] was > 100 µM. For the same compound, the GI50 [40] was 1.74 µM, the TGI [40] was > 100 µM and the GI50 [41] was > 100 µM. The TGI [41] was > 100 µM, the GI50 [42] was 7.23 µM and the TGI [42] was > 100 µM. The GI50 [43] was > 100 µM, the TGI [43] was > 100 µM and the GI50 [44] was > 100 µM. The TGI [44] was > 100 µM, the GI50 [45] was 3.18 µM and the TGI [45] was 10.2 µM. The GI50 [46] was > 100 µM, the TGI [46] was > 100 µM and the GI50 [47] was 1.65 µM. For the same compound, the TGI [47] was > 100 µM, the GI50 [48] was > 100 µM and the TGI [48] was > 100 µM. For the same compound, the GI50 [49] was > 100 µM, the TGI [49] was > 100 µM and the GI50 [50] was > 100 µM. The TGI [50] was > 100 µM, the GI50 [51] was 4.13 µM and the TGI [51] was > 100 µM. The GI50 [52] was 5.49 µM and the TGI [52] was > 100 µM.
